For one experiment, the system named is MV4-11 cells. The experiment in a line: Inhibition of MV4-11 cell proliferation (CellTiterGlo). Type of experiment: cell-based. The note with it: Homo sapiens, 72 hours growth, uncertainty ±20%. The protocol:
To assess the cellular potency of compounds of the present invention, FLT3 specific growth inhibition was measured in the leukemic cell line MV4-11 (ATCC Number: CRL-9591). MV4-11 cells are derived from a patient with childhood acute myelomonocytic leukemia with an 11q23 translocation resulting in a MLL gene rearrangement and containing an FLT3-ITD mutation (AML subtype M4)(1,2). MV4-11 cells cannot grow and survive without active FLT3ITD.
To measure proliferation inhibition by compounds of the present invention, the luciferase based CellTiterGlo reagent (Promega), which quantifies total cell number based on total cellular ATP concentration, was used. Cells are plated at 10,000 cells per well in 100 ul of in RPMI media containing penn/strep, 10% FBS and 1 ng/ml GM-CSF or 1 ng/ml IL-3 for MV4-11 and Baf3 cells respectively.
Compound dilutions or 0.1% DMSO (vehicle control) are added to cells and the cells are allowed to grow for 72 hours at standard cell growth conditions (37° C., 5% CO2). For activity measurements in MV4-11 cells grown in 50% plasma, cells were plated at 10,000 cells per well in a 1:1 mixture of growth media and human plasma (final volume of 100 μL). To measure total cell growth an equal volume of CellTiterGlo reagent was added to each well, according to the manufacturer's instructions, and luminescence was quantified. Total cell growth was quantified as the difference in luminescent counts (relative light units, RLU) of cell number at Day 0 compared to total cell number at Day 3 (72 hours of growth and/or compound treatment). One hundred percent inhibition of growth is defined as an RLU equivalent to the Day 0 reading. Zero percent inhibition was defined as the RLU signal for the DMSO vehicle control at Day 3 of growth.
Data points are an average of triplicate samples. […] Inhibition and IC50 data analysis was done with GraphPad Prism using a non-linear regression fit with a multiparamater, sigmoidal dose-response (variable slope) equation.
(In general: ATP-based viability assays read luminescence as a measure of living cells.)

Experiment [1] addresses T1, isolated kinase domain of the human FLT3 receptor (a.a. 571-993) (Homo sapiens, UniProt P36888).
T1 construct: human FLT3 receptor (a.a. 571-993)
T1 sequence (P36888 571-993): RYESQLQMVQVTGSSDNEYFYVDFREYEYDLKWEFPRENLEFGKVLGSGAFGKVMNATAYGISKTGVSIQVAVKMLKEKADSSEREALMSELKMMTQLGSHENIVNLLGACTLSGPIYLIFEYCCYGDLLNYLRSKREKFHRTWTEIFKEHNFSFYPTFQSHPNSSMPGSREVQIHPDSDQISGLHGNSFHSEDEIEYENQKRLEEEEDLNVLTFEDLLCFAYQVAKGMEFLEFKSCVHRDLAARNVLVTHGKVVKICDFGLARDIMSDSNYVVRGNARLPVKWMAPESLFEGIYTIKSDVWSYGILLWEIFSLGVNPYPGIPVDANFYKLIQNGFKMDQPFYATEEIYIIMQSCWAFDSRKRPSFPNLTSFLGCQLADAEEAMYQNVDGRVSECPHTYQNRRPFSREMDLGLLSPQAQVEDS
The experiment in a line: FLT3 fluorescence polarization kinase assay. In kind it is biochemical. Conditions: 10 nM FLT3 571-993, 150 uM ATP; uncertainty ±10%; read-out: Flt-3 Kinase IC50. The text has this:
The FLT3 FP assay utilizes the fluorescein-labeled phosphopeptide and the anti-phosphotyrosine antibody included in the Panvera Phospho-Tyrosine Kinase Kit (Green) supplied by Invitrogen. When FLT3 phosphorylates polyGlu4Tyr, the fluorescein-labeled phosphopeptide is displaced from the anti-phosphotyrosine antibody by the phosphorylated poly Glu4Tyr, thus decreasing the FP value. […] The kinase reaction is stopped with the addition of EDTA. The fluorescein-labeled phosphopeptide and the anti-phosphotyrosine antibody are added and incubated for 30 minutes at room temperature.
Data points are an average of triplicate samples. Inhibition and IC50 data analysis was done with GraphPad Prism using a non-linear regression fit with a multiparamater, sigmoidal dose-response (variable slope) equation.
(In general: In fluorescence polarisation assays a small probe gives low polarisation when free and higher when bound to something large.)

Molecules are shown by their SMILES. Structures can show the parent of a compound that is named as a salt. A value given as a limit tells only on which side of the number the result lay.

The record followed here is patent US7795279B2, “Method of inhibiting FLT3 kinase” (Janssen Pharmaceutica NV, priority 2005, dated 2010).

What is called IC50 is the concentration that inhibits the measured activity by half.

As to `N#Cc1c[nH]c(C(=O)Nc2ccc(C3CCN(CCN4CCOCC4)CC3)cc2C2=CCCCC2)n1` [Example 34, 4-Cyano-1H-imidazole-2-carboxylic acid {2-cyclohex-1-enyl-4-[1-(2-morpholin-4-yl-ethyl)-piperidin-4-yl]-phenyl}-amide di-trifluoroacetic acid salt], in the experiment on MV4-11 cells, the IC50 worked out at 8 nM.
Same read-out and setting: the same measure for `Cn1ccnc1CN1CCC(c2ccc(NC(=O)c3nc(C#N)c[nH]3)c(C3=CCCC3)c2)CC1` [Example 23, 4-Cyano-1H-imidazole-2-carboxylic acid {2-cyclopent-1-enyl-4-[1-(1-methyl-1 H-imidazol-2-ylmethyl)-piperidin-4-yl]-phenyl}-amide trifluoroacetic acid salt]: 115 nM.
For the compound `CN(C)CC(=O)N1CCC(c2ccc(NC(=O)c3nc(C#N)c[nH]3)c(C3=CCC(C)(C)CC3)n2)CC1` [Example 55, 4-Cyano-1H-imidazole-2-carboxylic acid [1′-(2-dimethylamino-acetyl)-6-(4,4-dimethyl-cyclohex-1-enyl)-1′,2′,3′,4′,5′,6′-hexahydro-[2,4′]bipyridinyl-5-yl]-amide trifluoroacetic acid salt], in experiment [1], the IC50 came to 34 nM.
As to `N#Cc1c[nH]c(C(=O)Nc2ccc(C3CCNCC3)cc2C2=CCCCC2)c1` [Example 13, 4-Cyano-1H-pyrrole-2-carboxylic acid (2-cyclohex-1-enyl-4-piperidin-4-yl-phenyl)-amide trifluoroacetic acid salt], the IC50 in experiment [1] is 29 nM.
Take `Cc1ccccc1-c1cc(N2CCN(C)CC2)ccc1NC(=O)c1ccc(C#N)o1` [Example 9, 5-Cyano-furan-2-carboxylic acid [2′-methyl-5-(4-methyl-piperazin-1-yl)-biphenyl-2-yl]-amide]: in the experiment on MV4-11 cells, inhibition was half-maximal at 1000 nM (IC50).
The same measure, in the same setting: as for `CN1CCN(c2ccc(NC(=O)c3ccc(C#N)o3)c(C3=CCCCC3)c2)CC1` [Example 11, 5-Cyano-furan-2-carboxylic acid [2-cyclohex-1-enyl-4-(4-methyl-piperazin-1-yl)-phenyl]-amide], the figure is 131 nM.
Still for that read-out and setting: the same measure for `N#Cc1c[nH]c(C(=O)Nc2ccc(C3CCS(=O)(=O)CC3)cc2C2=CCCCC2)n1` [Example 35, 4-Cyano-1H-imidazole-2-carboxylic acid [2-cyclohex-1-enyl-4-(1,1-dioxo-hexahydro-1λ^6-thiopyran-4-yl)-phenyl]-amide]: 192 nM; for `C[C@@H]1CC(c2ccc(NC(=O)c3ncc(C#N)[nH]3)c(C3=CCCCC3)c2)C[C@H](C)N1` (stereo partly drawn) [Example 51a, 5-Cyano-1H-imidazole-2-carboxylic acid [2-cyclohex-1-enyl-4-(cis-2,6-dimethyl-piperidin-4-yl)-phenyl]-amide bis trifluoroacetic acid salt]: 4.72 nM; for `N#Cc1c[nH]c(C(=O)Nc2ccc(C3CCNCC3)cc2C2=CCS(=O)(=O)CC2)n1` [Example 36, 4-Cyano-1H-imidazole-2-carboxylic acid [2-(1,1-dioxo-1,2,3,6-tetrahydro-1λ^6-thiopyran-4-yl)-4-piperidin-4-yl-phenyl]-amide trifluoroacetic acid salt]: 192 nM.
As to `Cc1cscc1-c1cc(N2CCN(C)CC2)ccc1NC(=O)c1ccc(C#N)o1` [Example 5, 5-Cyano-furan-2-carboxylic acid [4-(4-methyl-piperazin-1-yl)-2-(4-methyl-thiophen-3-yl)-phenyl]-amide], the values for the IC50 (in experiment [1]; in the experiment on MV4-11 cells) were 10 nM and 666 nM, respectively.
Consider `CN1CCN(c2ccc(NC(=O)c3ccc(C#N)o3)c(C3=CCOCC3)c2)CC1` [Example 12], for which, in the experiment on MV4-11 cells, the IC50 is greater than 10000 nM.
On the same count and under the same terms, the same measure for `CS(=O)(=O)CCN1CCC(c2ccc(NC(=O)c3nc(C#N)c[nH]3)c(C3=CCCCC3)c2)CC1` [Example 40, 4-Cyano-1H-imidazole-2-carboxylic acid {2-cyclohex-1-enyl-4-[1-(2-methanesulfonyl-ethyl)-piperidin-4-yl]-phenyl}-amide]: 116 nM.
